From ChEMBL document CHEMBL1201862, “PubChem BioAssay data set” (2004)
The source made the active and inactive calls.

Legend:
[1] = biological target: T1, Sentrin-specific protease 8 (Homo sapiens, UniProt Q96LD8); type: functional;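 further: luminescence read-out of SENP8 inhibition, dose-response confirmation following an ultra-high-throughput screen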
T1 sequence (Q96LD8 whole entry): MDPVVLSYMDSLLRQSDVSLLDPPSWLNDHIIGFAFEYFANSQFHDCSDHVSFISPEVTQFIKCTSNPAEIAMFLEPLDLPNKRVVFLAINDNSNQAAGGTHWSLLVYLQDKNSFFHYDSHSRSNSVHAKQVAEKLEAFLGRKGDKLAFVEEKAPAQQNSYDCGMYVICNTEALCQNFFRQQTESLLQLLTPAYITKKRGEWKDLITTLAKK

[2] = biological target: T2, Sentrin-specific protease 6 (Homo sapiens, UniProt Q9GZR1); type: functional;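 further: Luminescence-based dose-response confirmatory assay of SENP6 inhibition, following up an ultra-high-throughput screen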
T2 sequence (Q9GZR1 whole entry): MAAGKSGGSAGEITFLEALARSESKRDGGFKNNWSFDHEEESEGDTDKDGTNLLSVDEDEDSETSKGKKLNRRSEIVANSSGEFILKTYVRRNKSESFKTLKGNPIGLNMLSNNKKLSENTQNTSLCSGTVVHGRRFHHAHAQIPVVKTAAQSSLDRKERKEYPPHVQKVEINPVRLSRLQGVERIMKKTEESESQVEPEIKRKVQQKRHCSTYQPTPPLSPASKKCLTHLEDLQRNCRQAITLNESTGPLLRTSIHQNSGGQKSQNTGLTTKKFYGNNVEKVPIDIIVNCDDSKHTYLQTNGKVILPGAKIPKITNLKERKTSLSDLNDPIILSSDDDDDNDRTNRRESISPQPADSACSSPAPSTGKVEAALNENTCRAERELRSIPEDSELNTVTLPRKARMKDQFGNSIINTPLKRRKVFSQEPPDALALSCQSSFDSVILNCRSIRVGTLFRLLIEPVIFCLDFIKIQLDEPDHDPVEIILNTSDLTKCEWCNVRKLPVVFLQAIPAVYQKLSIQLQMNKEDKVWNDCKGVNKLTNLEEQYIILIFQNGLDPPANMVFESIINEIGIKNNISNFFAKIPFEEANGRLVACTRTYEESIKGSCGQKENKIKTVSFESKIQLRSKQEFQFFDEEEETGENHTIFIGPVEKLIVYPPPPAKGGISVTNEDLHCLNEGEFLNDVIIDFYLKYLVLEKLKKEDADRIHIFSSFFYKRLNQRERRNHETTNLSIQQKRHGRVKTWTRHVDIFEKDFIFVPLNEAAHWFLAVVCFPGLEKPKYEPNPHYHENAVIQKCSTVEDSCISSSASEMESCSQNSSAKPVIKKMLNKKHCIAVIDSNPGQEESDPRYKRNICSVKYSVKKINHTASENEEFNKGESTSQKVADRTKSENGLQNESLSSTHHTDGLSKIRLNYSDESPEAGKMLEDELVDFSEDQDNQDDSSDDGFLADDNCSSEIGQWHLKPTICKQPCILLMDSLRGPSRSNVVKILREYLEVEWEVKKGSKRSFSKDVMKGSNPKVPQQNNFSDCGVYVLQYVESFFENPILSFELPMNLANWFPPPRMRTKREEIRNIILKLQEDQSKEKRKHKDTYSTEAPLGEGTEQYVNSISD

[3] = biological target: T3, Caspase-3 (Homo sapiens, UniProt P42574); type: functional;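 further: Dose-response selectivity test against caspase-3 for candidate inhibitors of sentrin-specific proteases (SENPs)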
T3 sequence (P42574 whole entry): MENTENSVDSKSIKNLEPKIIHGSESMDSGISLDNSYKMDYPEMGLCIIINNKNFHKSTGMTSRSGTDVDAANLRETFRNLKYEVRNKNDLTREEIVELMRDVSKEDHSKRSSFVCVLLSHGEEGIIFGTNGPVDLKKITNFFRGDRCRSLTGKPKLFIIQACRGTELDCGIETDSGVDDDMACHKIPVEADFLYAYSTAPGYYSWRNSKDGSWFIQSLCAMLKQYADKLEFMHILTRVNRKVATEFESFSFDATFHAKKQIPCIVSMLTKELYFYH

[4] = biological target: T4, Sentrin-specific protease 7 (Homo sapiens, UniProt Q9BQF6); type: functional;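 further: Luminescence-based dose-response confirmation of ultra-high-throughput screening hits, measuring inhibition of SENP7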
T4 sequence (Q9BQF6 whole entry): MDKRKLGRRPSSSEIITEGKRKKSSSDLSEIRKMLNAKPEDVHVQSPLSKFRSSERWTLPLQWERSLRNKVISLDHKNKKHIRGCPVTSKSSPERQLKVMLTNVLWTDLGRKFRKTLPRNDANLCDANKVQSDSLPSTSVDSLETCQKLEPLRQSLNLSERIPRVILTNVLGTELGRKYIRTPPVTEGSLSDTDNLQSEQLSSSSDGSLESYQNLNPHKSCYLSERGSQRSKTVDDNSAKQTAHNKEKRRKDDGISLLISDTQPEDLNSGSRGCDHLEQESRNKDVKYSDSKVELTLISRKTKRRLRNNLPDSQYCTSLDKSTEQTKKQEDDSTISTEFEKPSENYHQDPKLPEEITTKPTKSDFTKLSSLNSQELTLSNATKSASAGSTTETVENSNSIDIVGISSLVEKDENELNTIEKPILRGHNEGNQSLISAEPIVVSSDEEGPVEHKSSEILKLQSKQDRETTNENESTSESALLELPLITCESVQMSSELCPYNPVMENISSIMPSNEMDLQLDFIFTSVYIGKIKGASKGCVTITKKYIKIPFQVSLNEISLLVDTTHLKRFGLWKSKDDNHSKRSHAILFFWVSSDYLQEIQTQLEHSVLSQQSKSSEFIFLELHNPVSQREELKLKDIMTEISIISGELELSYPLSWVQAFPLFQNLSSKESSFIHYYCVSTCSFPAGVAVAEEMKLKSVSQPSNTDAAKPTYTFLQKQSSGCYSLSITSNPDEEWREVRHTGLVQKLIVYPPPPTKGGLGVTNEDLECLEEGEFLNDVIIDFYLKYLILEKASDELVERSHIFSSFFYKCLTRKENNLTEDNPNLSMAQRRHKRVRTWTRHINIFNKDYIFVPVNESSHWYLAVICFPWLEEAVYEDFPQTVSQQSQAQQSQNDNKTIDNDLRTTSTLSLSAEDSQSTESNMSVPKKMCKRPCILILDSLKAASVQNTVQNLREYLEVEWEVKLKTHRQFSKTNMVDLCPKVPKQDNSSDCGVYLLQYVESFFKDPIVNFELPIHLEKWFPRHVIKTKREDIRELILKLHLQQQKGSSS

[5] = biological target: T5, Zinc finger protein mex-5 (Caenorhabditis elegans, UniProt Q9XUB2); assay: MEX-5/TCR-2 RNA interaction inhibitors, dose response, biochemical, C. elegans, fluorescence polarization (AID 1960)
T5 sequence (Q9XUB2 whole entry): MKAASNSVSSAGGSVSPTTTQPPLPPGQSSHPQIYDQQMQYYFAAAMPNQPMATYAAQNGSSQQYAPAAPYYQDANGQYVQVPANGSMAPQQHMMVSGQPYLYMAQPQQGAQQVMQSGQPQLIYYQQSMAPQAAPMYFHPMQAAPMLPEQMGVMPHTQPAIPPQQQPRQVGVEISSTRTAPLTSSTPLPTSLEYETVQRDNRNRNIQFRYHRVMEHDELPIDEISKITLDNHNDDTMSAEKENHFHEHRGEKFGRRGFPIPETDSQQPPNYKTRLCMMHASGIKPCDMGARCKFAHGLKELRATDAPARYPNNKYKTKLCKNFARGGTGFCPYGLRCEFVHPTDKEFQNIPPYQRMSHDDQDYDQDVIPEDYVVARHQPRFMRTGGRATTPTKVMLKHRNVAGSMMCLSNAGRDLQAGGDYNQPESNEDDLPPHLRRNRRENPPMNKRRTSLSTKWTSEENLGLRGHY

[6] = biological target: T6, RNA-binding protein pos-1 (Caenorhabditis elegans, UniProt G5EF15); assay: inhibitors of POS-1/mex-3 RNA binding, dose response, biochemical, fluorescence polarization (AID 1964);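 further: purified POS-1 fused to maltose binding protein made in E. coli; potency of compounds blocking POS-1 binding to fluorescent RNA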
T6 sequence (G5EF15 whole entry): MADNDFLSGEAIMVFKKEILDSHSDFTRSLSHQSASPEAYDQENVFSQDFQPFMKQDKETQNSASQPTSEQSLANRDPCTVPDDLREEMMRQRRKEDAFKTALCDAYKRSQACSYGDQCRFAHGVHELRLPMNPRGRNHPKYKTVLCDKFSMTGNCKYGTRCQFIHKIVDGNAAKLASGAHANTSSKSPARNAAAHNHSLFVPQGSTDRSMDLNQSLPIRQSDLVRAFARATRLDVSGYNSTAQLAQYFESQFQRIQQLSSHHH

[7] = biological target: T7, Ubiquitin-conjugating enzyme E2 N (Homo sapiens, UniProt P61088); type: functional;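 further: Dose-response confirmation in a TR-FRET assay detecting UBC13-driven polyubiquitin chain formation, inhibition measured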
T7 sequence (P61088 whole entry): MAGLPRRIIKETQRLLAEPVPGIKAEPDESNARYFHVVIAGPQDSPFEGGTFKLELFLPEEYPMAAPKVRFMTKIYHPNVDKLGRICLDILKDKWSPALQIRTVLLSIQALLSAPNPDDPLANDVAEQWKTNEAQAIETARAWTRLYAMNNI

[8] = biological target: T8, Caspase-6 (Homo sapiens, UniProt P55212); assay: human caspase-6 inhibitors, dose response, biochemical, VEID-R110 fluorescence, cherry-pick (AID 720632)
T8 sequence (P55212 whole entry): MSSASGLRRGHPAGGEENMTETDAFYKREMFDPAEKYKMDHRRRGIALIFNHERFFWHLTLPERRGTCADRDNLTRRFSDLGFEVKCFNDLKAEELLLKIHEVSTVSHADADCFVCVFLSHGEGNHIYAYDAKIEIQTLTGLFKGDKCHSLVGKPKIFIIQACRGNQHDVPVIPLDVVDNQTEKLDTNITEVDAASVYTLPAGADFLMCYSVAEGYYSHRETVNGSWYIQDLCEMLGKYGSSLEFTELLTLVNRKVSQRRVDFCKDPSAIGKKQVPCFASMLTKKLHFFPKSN

[9] = biological target: T9, Polyadenylate-binding protein 1 (Homo sapiens, UniProt P11940); assay: PABP1 MLLE–PAM2 binding inhibitor potency, dose response, biochemical, fluorescence polarization, FITC-PAM2 peptide (AID 602259); type: functional; conditions: read-out: IC50_Mean
T9 sequence (P11940 whole entry): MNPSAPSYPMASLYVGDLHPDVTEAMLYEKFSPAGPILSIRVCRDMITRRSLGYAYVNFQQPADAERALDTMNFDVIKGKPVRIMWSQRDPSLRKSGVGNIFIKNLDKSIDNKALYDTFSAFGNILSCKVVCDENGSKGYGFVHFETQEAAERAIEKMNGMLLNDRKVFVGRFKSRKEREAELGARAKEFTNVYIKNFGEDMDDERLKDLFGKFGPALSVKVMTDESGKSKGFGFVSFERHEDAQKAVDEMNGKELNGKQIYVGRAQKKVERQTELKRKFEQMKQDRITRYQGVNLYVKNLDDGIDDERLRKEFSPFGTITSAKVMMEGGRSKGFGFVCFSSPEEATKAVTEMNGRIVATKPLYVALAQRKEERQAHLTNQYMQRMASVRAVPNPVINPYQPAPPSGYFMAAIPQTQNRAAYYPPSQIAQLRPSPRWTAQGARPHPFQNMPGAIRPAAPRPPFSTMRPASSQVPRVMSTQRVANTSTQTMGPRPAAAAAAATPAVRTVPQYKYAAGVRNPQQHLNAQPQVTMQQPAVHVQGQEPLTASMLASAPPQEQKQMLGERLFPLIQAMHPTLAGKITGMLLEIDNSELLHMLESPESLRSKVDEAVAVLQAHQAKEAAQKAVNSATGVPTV

[10] = biological target: T9, Polyadenylate-binding protein 1; assay: PABP1 MLLE–PAM2 interaction inhibitors, dose response, miRNA deadenylation inhibitor project, biochemical, fluorescence polarization, Cy5-PAM2 peptide, secondary (AID 602260); type: functional; conditions: read-out: IC50_Mean
[11] = microbe, parasite or virus in culture; type: functional; conditions: Mycobacterium tuberculosis
[12] = cells; type: functional, cell-based
[13] = test system: INS1; assay: beta cell apoptosis inhibitors, cytokine rescue, dose response, luminescence, retest (AID 449756); type: functional, cell-based; conditions: Rattus norvegicus;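 further: cell death triggered by IL-1 beta plus TNF-alpha plus IFN-gamma mixture; protective hits raise ATP signal compared with cytokine alone wells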
[14] = cells; type: functional, cell-based; remark: listed apart in the source
[15] = cytotoxicity toward NIH3T3 fibroblasts, dose response, counter-screen, cell-based, ATP luminescence, mouse fibroblasts (AID 2010); type: functional;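 further: cells exposed to compound for about 90 hours before reading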
[16] = inhibitors of intracellular T. cruzi replication, confirmation, NIH3T3 host cells, beta-gal luminescence (AID 2044); type: functional, cell-based;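 further: intracellular parasites grown in NIH/3T3 mouse fibroblasts as host cells; luminescent beta-galactosidase reporter signal from transgenic T. cruzi replicating inside host cells; inhibitors lower the luminescence signal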
[17] = test system: Vero; assay: cells; type: functional; conditions: Chlorocebus sabaeus
[18] = HEp-2 cell cytotoxicity, dose response, cytotoxicity control for RSV inhibitor project, HTS (AID 2410); type: functional; conditions: human respiratory syncytial virus

## CCN(CC)c1ccc(C(=O)OCC(=O)Nc2sccc2C#N)cc1
[1]
  IC50: 89.1 µM (active)
[2]
  IC50: 11.5 µM (active)
[3]
  IC50: 37.3 µM (active)
[4]
  IC50: 11.6 µM (active)

## O=C1NC(=O)N(CCc2ccccc2)C(=O)/C1=C/NCCCn1ccnc1
[5]
  EC50: > 300 µM (not active)
[6]
  EC50: > 300 µM (not active)

## CCN(CC)c1ccc(N/C=C2/C(=O)NC(=O)N(c3ccc(OC)cc3)C2=O)cc1
[5]
  EC50: 6.36 µM (active)
[6]
  EC50: 9.58 µM (inconclusive)

## NS(=O)(=O)c1ccc(CCNC(=O)C2CCN(c3ncnc4c3nc3n4CCCCC3)CC2)cc1
[7]
  IC50: > 20 µM (inactive)

## O=C(NCc1ccccc1Cl)c1ccc2[nH]cnc2c1
[8]
  AC50: 28.1 µM (active)

## COc1nccnc1NS(=O)(=O)c1ccc(NC(=S)NC(=O)c2ccc(F)cc2)cc1
[9]
  IC50: > 66 µM (inactive)
[10]
  IC50: > 66 µM (inactive)

## Oc1ccc(C[C@H]2CNCCN2CCCCC2CCCCC2)cc1
[7]
  IC50: > 20 µM (inactive)
[11]
  CC50: 13.2 µM (active)

## O=C(CSC1c2ccccc2-c2ccccc21)N/N=C/c1ccccc1O
[12]
  EC50: > 350 µM (not active)
[9]
  IC50: > 66 µM (inactive)
[13]
  AC50: 2.03 µM (active)
[14]
  EC50: 12.9 µM (active)
[15]
  EC50: 9.08 µM (active)
[16]
  EC50: 2.55 µM (active)
[10]
  IC50: > 66 µM (inactive)

## C=CCOc1cccc(C2C(C(=O)c3ccco3)=C(O)C(=O)N2Cc2ccco2)c1 (stereo not drawn)
[5]
  EC50: > 300 µM (not active)
[6]
  EC50: > 300 µM (not active)

## O=C(O)c1ccccc1NS(=O)(=O)c1ccc(NN=Cc2cccc(Cl)c2)c([N+](=O)[O-])c1
[8]
  AC50: 24.5 µM (active)

## O=C(CCCCCn1c(=O)[nH]c2ccccc2c1=O)NCCCN1CCN(c2ccccc2F)CC1
[7]
  IC50: > 20 µM (inactive)

## COc1ccc(-c2nc3cnccn3c2NC(C)(C)CC(C)(C)C)cc1O
[17]
  CC50: > 25 µM (active)

## NC(=S)N=Nc1c(O)[nH]c2cc(F)c(F)cc12
[9]
  IC50: > 66 µM (inactive)
[7]
  IC50: > 20 µM (inactive)
[10]
  IC50: > 66 µM (inactive)
[18]
  CC50: 40 µM (active)

## COc1ccc(CNC(=O)CN(Cc2ccc(Cl)cc2)C(=O)c2csnn2)cc1
[9]
  IC50: > 66 µM (inactive)
[10]
  IC50: > 66 µM (inactive)

## CSC1=NC(/C=C/c2ccc(Cl)cc2Cl)=CC(C)(C)N1
[17]
  CC50: 17.4 µM (active)

## O=C(Nc1ccccc1[N+](=O)[O-])c1cc(S(=O)(=O)N2CCOCC2)cs1
[17]
  CC50: 18.3 µM (active)

## COc1ccc(/C(O)=C/C2=NCC3c4ccccc4CCN3C2=O)cc1 (stereo not drawn)
[5]
  EC50: > 300 µM (not active)
[6]
  EC50: > 300 µM (not active)

## CC1(C)Cc2c(sc(NC(=O)c3ccc4c(c3)OCCO4)c2C(N)=O)C(C)(C)N1
[7]
  IC50: > 20 µM (inactive)

## Fc1cccc2sc(N3CCCCC3)nc12
[1]
  IC50: 60.5 µM (active)
[2]
  IC50: 30.3 µM (active)
[3]
  IC50: 10.7 µM (active)
[4]
  IC50: 7.98 µM (active)

## CCSc1nc(=S)n(-c2ccccc2)c(C)c1C(C)=O
[9]
  IC50: > 66 µM (inactive)
[10]
  IC50: > 66 µM (inactive)
